According to patent publication US20260183321A1, “TREATMENT OF CORONAVIRUS INFECTIONS WITH ANTIMICROBIAL PHOSPHOLIPID COMPOSITIONS” (NATIONAL JEWISH HEALTH, priority 2022, published 2026):

Tests used:
SARS-CoV-2 [1] = type: cell-based; conditions: 48 hrs; for reduction of SARS-CoV-2 mRNA expression: healthy control subjects (n=3), lipid 16 hrs before infection, 5 mg/ml POPG, 2 mg/ml PI
SARS-CoV-2 [2] = assay: cytopathic effect by SARS-CoV-2 in VeroE6 cells (histological images); type: cell-based; conditions: 72 hrs after infection, POPG 1000 μg/ml, PI 500 μg/ml, PC 2000 μg/ml
VeroE6 cells = assay: cell viability assays on VeroE6 cells; type: cell-based, African green monkey; conditions: 2 mg/ml
SARS-CoV-2 [3] = assay: quantitative plaque assay for SARS-CoV-2 in VeroE6 cells; type: cell-based; parameters: lowest concentration with significant reduction in viral load: unit not given here; conditions: for suppression of the viral burden elicited by SARS-CoV-2: MOI 0.01, 24 Hr after the initial infection, simultaneous treatment with virus plus lipid
Experimental: VeroE6 cells were infected with SARS-CoV-2 at an MOI=0.01 in either the absence of lipids, or presence of POPG, or PI, or POPC, at concentrations of 250 μg/ml-1000 μg/ml (SARS-CoV-2+POPG, SARS-CoV-2+PI) or the control lipid phosphatidylcholine (PC), at various concentrations (250 μg-1000 μg/ml) (SARS-CoV-2+PC). Cells were preincubated with lipids 30 mins before viral inoculation. Culture media was harvested at 24 hr and processed for quantitative plaque assay for SARS-CoV-2 (FIG. 1A) and for viral yield as a function of phospholipid concentration (FIG. 1). The data are shown as mean+/−SE for three independent experiments in log10 scale. is a graph of viral yield as a function of phospholipid concentration.
A sample holder containing 96 wells (3 plates) was provided and was plated with VeroE6 cells (a cell lineage isolated from kidney epithelial cells extracted from an African green monkey) at a concentration of 5×10^4 cells/well in 100 μl of medium. The medium utilized comprised Dulbecco's Modified Eagle Medium (DMEM), 5% fetal bovine serum (FCS), 1% L-glutamine, and 10,000 U/ml penicillin-streptomycin (PS). Here, it is noted that the antibiotics penicillin and streptomycin are commonly utilized to prevent bacterial contamination of cell cultures due to their effective combined action against gram-positive and gram-negative bacteria.
The wells were washed two times with calcium-free and magnesium-free phosphate buffered saline (PBS) (100 μl/well), and then an additional time with a culture medium consisting of DMEM, L-glutamine, 0.1% bovine serum albumin (BSA) and 10,000 U/ml PS.
The cells were then preincubated with lipids in the culture medium (100 μl/well) for 30-60 minutes at 37° C. Samples of SARS-CoV-2 virus were added at multiplicities of infection (MOI) of 0.01 and the virus was allowed to absorb for 2 hours at 37° C. […]
FIGS. 1A and 1B depicts the results obtained for quantitative plaque assay for SARS-CoV-2 (FIG. 1A) and for % viral yield as a function of phospholipid concentration (FIG. 1B).

[4] = test system: primary human bronchial epithelial cells; assay: 3H-leucine protein synthesis and secretion in primary human bronchial epithelial cells in ALI cultures; type: cell-based; conditions: for pleiotropic inhibition of metabolism (3H-intracellular protein synthesis, 3H secreted protein): 64 h with 3H-leucine, 5 mg/mL POPG or 2 mg/ml PI in apical media; for cytotoxic effects on primary airway epithelial cells: cells from patients with COPD as worded in b103 (FIGS. 11A-11B)
Experimental: Bronchial epithelia cells were incubated for 64 h with 3H-leucine in either the presence, or absence of 5 mg/mL of POPG; or 2 mg/ml of PI in only the apical media. 3H-intracellular protein synthesis (FIG. 11A), and 3H secreted protein in apical media (FIG. 11B) are shown. […]

[5] = biological target: T1, SARS-CoV-2 S1 ECD protein (Severe acute respiratory syndrome coronavirus 2, UniProt P0DTC2); assay: binding to SARS-CoV-2 S1 ECD protein
T1 construct: SARS-CoV-2 S1 ECD protein

SARS-CoV-2 [6] = assay: SARS-CoV-2 replication by qRT-PCR in differentiated nasal epithelial cells from a patient with COPD; type: cell-based; conditions: 48 hrs, 5 mg/ml POPG, 2 mg/ml PI
SARS-CoV-2 [7] = assay: hamster model of SARS-CoV-2 infection, intranasal treatment; type: in vivo, Syrian hamsters

Compound | effect on SARS-CoV-2 replication (SARS-CoV-2 [1]; healthy control subjects, PC 10 mg/ml) | state of infected cell cultures (cytopathic effect) (SARS-CoV-2 [2]) | toxicity on VeroE6 cells (VeroE6 cells) | suppression of the viral burden elicited by SARS-CoV-2 (SARS-CoV-2 [3]) [%] | pleiotropic inhibition of metabolism (3H-intracellular protein synthesis, 3H secreted protein) [4] | cytotoxic effects on primary airway epithelial cells [4] | binding to SARS-CoV-2 S1 ECD protein [5] | reduction of SARS-CoV-2 mRNA expression (SARS-CoV-2 [1]) [%] | replication in differentiated nasal epithelial cells of severe asthmatics (SARS-CoV-2 [1]) | attenuation of SARS-CoV-2 replication (SARS-CoV-2 [6]) [%] | lowest concentration with significant reduction in viral load (SARS-CoV-2 [3]; 24 hr) | SARS-CoV-2 replication in hamsters (plaque assays of pharyngeal swabs) (SARS-CoV-2 [7]; PI 2 mg/animal intranasal, days 1-3) | mean turbinate viral load (SARS-CoV-2 [7]; hamsters, 2 mg PI intranasal, after 24 hours, untreated group 2.4E+04) | % inhibition of viral load (SARS-CoV-2 [7]; hamsters, single dose of 2 mg PI, after 24 hours, versus untreated) [%]
phosphatidylcholine [PC, reference compound] | did not affect SARS-CoV-2 replication | significant cytopathic effects | Neither POPG, PI or POPC elicited toxicity |  |  |  |  |  |  |  |  |  |  | 
CCCCCCCC/C=C\CCCCCCCC(=O)O[C@H](COC(=O)CCCCCCCCCCCCCCC)COP(=O)(O)OCC(O)CO (stereo partly shown) [POPG, palmitoyl-oleoyl-phosphatidylglycerol] |  | remained intact | Neither POPG, PI or POPC elicited toxicity | 90 | does not produce pleiotropic inhibition of metabolism | neither POPG nor PI had cytotoxic effects | weak affinity and non-specific manner | 75 | inhibit replication | 80 |  |  |  | 
phosphatidylinositol [PI] |  | remained intact | Neither POPG, PI or POPC elicited toxicity | 99 | does not produce pleiotropic inhibition of metabolism | neither POPG nor PI had cytotoxic effects | weak affinity and non-specific manner | 87 | inhibit replication | 85 | ≥ 250 | inhibits SARS-CoV-2 replication | 9.3E+01 | 99.6
